Reference: PubChem BioAssay AID180 (DTP/NCI, 2004)
Where “and” joins values, the source holds several entries; their conditions need not be identical. Equal entries are not always repeated.

Test system: BDF1 mice, Adenocarcinoma 755 s.c., tumor weight T/C
Assay: NCI In Vivo Anticancer Drug Screen. Data for tumor model Adenocarcinoma 755 (subcutaneous) in B6D2F1 (BDF1) mice
Settings: endpoint: mean tumor weight, schedule: Q01DX011 (ip), higher = larger tumour
Experimental: The antitumor activity of compounds was measured in mice bearing transplantable tumors. Survival or tumor size were measured and the results are expressed as the measurement made in the treated group (T) divided by the measurement made in the vehicle treated control group (C). The tumor model used in this assay is Adenocarcinoma 755 (subcutaneous) in B6D2F1 (BDF1) mice

[1] = dose: 15.0 mg/kg/injection, vehicle: methylcellulose (MC)
[2] = dose: 31.0 mg/kg/injection, vehicle: methylcellulose (MC)
[3] = dose: 62.0 mg/kg/injection, vehicle: methylcellulose (MC)
[4] = dose: 7.5 mg/kg/injection, vehicle: carboxymethylcellulose (CMC)
[5] = dose: 15.0 mg/kg/injection, vehicle: carboxymethylcellulose (CMC)
[6] = dose: 125.0 mg/kg/injection, vehicle: methylcellulose (MC)
[7] = dose: 250.0 mg/kg/injection, vehicle: methylcellulose (MC)

Nc1nc(O)c(Br)c(=O)[nH]1
T/C [1]: 86 % of control
T/C [2]: 69 % of control
T/C [3]: 68 % of control

CN(C)N=Nc1ccc(CCC(=O)NN)cc1
T/C (dose: 10.0 mg/kg/injection, vehicle: saline): 63 % of control
T/C (dose: 15.0 mg/kg/injection, vehicle: saline): 56 % of control
T/C (dose: 20.0 mg/kg/injection, vehicle: saline): 44 % of control
T/C (dose: 31.0 mg/kg/injection, vehicle: saline): 40 % of control

CCCCn1cnc2c(SC)nc(N)nc21
T/C (dose: 3.8 mg/kg/injection, vehicle: carboxymethylcellulose (CMC)): 95 % of control
T/C [4]: 49 % of control
T/C (dose: 9.0 mg/kg/injection, vehicle: carboxymethylcellulose (CMC)): 79 % of control
T/C (dose: 13.0 mg/kg/injection, vehicle: carboxymethylcellulose (CMC)): 69 % of control
T/C [5]: 30 % of control
T/C (dose: 20.0 mg/kg/injection, vehicle: carboxymethylcellulose (CMC)): 44 % of control
T/C (dose: 60.0 mg/kg/injection, vehicle: carboxymethylcellulose (CMC)): 3 % of control and 4 % of control
T/C (dose: 115.0 mg/kg/injection, vehicle: carboxymethylcellulose (CMC)): 2 % of control and 3 % of control

Cc1ccc(N(O)C(=O)Nc2ccccc2)cc1
T/C (dose: 100.0 mg/kg/injection, vehicle: methylcellulose (MC)): 95 % of control
T/C (dose: 200.0 mg/kg/injection, vehicle: methylcellulose (MC)): 80 % of control

CC(=O)Nc1nc(SCc2ccccc2)c2[nH]cnc2n1
T/C (dose: 12.5 mg/kg/injection, vehicle: methylcellulose (MC)): 8 % of control

Cc1cn(C2CCCCC2)c(=O)n(-c2ccccc2)c1=O
T/C [1]: 108 % of control
T/C [2]: 91 % of control
T/C [3]: 93 % of control
T/C [6]: 96 % of control
T/C [7]: 88 % of control

Nc1nc(=S)c2ncn(C3CCCO3)c2[nH]1 (stereo not given)
T/C (dose: 0.7 mg/kg/injection, vehicle: carboxymethylcellulose (CMC)): 71 % of control
T/C (dose: 1.5 mg/kg/injection, vehicle: carboxymethylcellulose (CMC)): 60 % of control
T/C (dose: 3.0 mg/kg/injection, vehicle: carboxymethylcellulose (CMC)): 38 % of control
T/C [4]: 2 % of control
T/C [5]: 2 % of control

COc1cc([C@@H]2c3cc4c(cc3[C@H](O)[C@H]3COC(=O)[C@H]23)OCO4)cc(OC)c1OC
T/C (dose: 0.13 mg/kg/injection, vehicle: carboxymethylcellulose (CMC)): 102 % of control
T/C (dose: 0.27 mg/kg/injection, vehicle: carboxymethylcellulose (CMC)): 60 % of control and 80 % of control
T/C (dose: 0.54 mg/kg/injection, vehicle: carboxymethylcellulose (CMC)): 109 % of control
T/C (dose: 0.55 mg/kg/injection, vehicle: carboxymethylcellulose (CMC)): 76 % of control
T/C (dose: 1.08 mg/kg/injection, vehicle: carboxymethylcellulose (CMC)): 120 % of control
T/C (dose: 1.1 mg/kg/injection, vehicle: carboxymethylcellulose (CMC)): 117 % of control

O=S(=O)(O)c1cccnc1
T/C (dose: 19.63 mg/kg/injection, vehicle: carboxymethylcellulose (CMC)): 68 % of control
T/C (dose: 37.36 mg/kg/injection, vehicle: carboxymethylcellulose (CMC)): 91 % of control and 101 % of control
T/C (dose: 39.25 mg/kg/injection, vehicle: carboxymethylcellulose (CMC)): 99 % of control
T/C (dose: 62.5 mg/kg/injection, vehicle: methylcellulose (MC)): 108 % of control
T/C (dose: 78.5 mg/kg/injection, vehicle: carboxymethylcellulose (CMC)): 152 % of control
T/C [6]: 76 % of control
T/C (dose: 157.0 mg/kg/injection, vehicle: carboxymethylcellulose (CMC)): 79 % of control
T/C [7]: 95 % of control
T/C (dose: 298.9 mg/kg/injection, vehicle: carboxymethylcellulose (CMC)): 120 % of control

NC(CCSCc1ccc(N(CCCl)CCCl)cc1)C(=O)O (stereo not given)
T/C (dose: 4.5 mg/kg/injection, vehicle: saline): 99 % of control and 74 % of control
T/C (dose: 9.0 mg/kg/injection, vehicle: saline): 43 % of control and 54 % of control
T/C (dose: 36.0 mg/kg/injection, vehicle: saline): 29 % of control
T/C (dose: 54.0 mg/kg/injection, vehicle: saline): 21 % of control

COC1=NC2=NCCN2C(OC)=N1
T/C (dose: 25.0 mg/kg/injection, vehicle: saline): 94 % of control
T/C (dose: 75.0 mg/kg/injection, vehicle: saline): 69 % of control
T/C (dose: 225.0 mg/kg/injection, vehicle: saline): 54 % of control
